Laboratory results reported in publication PMC3628895, “Cloning, expression and characterization of an ethanol tolerant GH3 β-glucosidase from Myceliophthora thermophila” (PeerJ, 2013).
Read-outs that look alike come from different tables or passages of the source.

T1: MtBgl3a (Thermothelomyces thermophilus, UniProt G2QDN2)
T1 construct: gene MYCTH_66804
T1 sequence (G2QDN2 18-733): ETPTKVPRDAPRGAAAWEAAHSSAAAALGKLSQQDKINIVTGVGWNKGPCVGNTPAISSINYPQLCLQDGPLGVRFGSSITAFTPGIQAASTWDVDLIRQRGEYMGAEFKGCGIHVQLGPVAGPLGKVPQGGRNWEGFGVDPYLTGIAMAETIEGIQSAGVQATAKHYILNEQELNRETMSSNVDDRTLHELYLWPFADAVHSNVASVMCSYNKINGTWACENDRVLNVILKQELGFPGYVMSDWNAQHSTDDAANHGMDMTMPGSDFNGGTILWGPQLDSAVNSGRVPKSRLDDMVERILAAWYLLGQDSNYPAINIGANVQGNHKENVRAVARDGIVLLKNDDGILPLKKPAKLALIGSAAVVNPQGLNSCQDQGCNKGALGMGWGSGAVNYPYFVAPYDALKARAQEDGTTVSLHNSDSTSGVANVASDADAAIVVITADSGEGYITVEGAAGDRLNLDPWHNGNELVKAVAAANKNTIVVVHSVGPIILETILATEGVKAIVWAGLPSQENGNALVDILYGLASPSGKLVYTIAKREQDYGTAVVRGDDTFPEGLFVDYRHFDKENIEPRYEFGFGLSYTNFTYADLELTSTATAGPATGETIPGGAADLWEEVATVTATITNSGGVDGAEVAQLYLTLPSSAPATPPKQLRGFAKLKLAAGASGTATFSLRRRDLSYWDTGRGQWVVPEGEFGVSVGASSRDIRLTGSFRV

B1: MtBgl3a (Thermothelomyces thermophilus ATCC 42464) (protein)
chain: T1 sequence (G2QDN2 18-733)

Experiments:
[1] = target: T1, MtBgl3a; assay: p-nitrophenol release, absorbance […] nm; Michaelis-Menten fit (GraFit); type: biochemical
[2] = substrate: O=[N+]([O-])c1ccc(O[C@@H]2O[C@H](CO)[C@@H](O)[C@H](O)[C@H]2O)cc1; assay: purified protein; conditions: 100 mM citrate-phosphate pH 5.0, 40 °C
[3] = competitive, substrate p-β-NPG, pH 5.0 citrate-phosphate

Molecule	Ki [1, 3] [µM]	also measured
O=C(O)[C@H](O)[C@@H](O)[C@H](O)[C@H](O)CO [D-gluconic acid]		Ki [1]: 22 ± 2 µM
OC[C@H]1OC(O)[C@H](O)[C@@H](O)[C@@H]1O (stereo partly drawn) [D-glucose]	282 ± 100	
OC1OC[C@@H](O)[C@H](O)[C@H]1O (stereo partly drawn) [D-xylose]	30 ± 5	
B1		Km [2]: 0.39 ± 0.12 mM
